Results on 44 compounds are retold here after patent publication EP1931657B1, “NOVEL HIGH AFFINITY QUINOLINE-BASED KINASE LIGANDS” (Merck Sharp & Dohme Corp., priority 2005, dated 2007).

This assay deals with CDK-2 (Homo sapiens, UniProt P24941). The experiment in a line: CDK-2 inhibition, fluorescence polarization displacement assay.

Molecules are shown by their SMILES. Bounds are passed on as bounds.

The term IC50 denotes the concentration at which inhibition is half-maximal. Low readings indicate greater potency, high ones weaker potency.

Method: Binding assays were performed in a 384 well Costar NBS coated plate. […] The concentration of BMS-Alexa Fluor647 was 50 nM. Serial dilutions of compounds were added to 12 wells. The final buffer concentration was 10 mM Hepes, pH 7.5, 150 mM NaCl, and 1 mM DTT. Samples were incubated at room temperature for 15 minutes and then read in an Analyst HT instrument using an excitation and emission wavelength of 580 and 680 nm, respectively.

For `COC(=O)[C@H](Cc1ccc(O)cc1)NC(=O)c1cc(C(=O)O)c2cc(/C=C/c3ccc(F)cc3)ccc2n1` [Compound 6], the IC50 is less than 1000 nM. Compound `COC(=O)[C@H](Cc1ccc(O)cc1)NC(=O)c1cc(C(=O)O)c2cc(CCc3ccc(C(F)(F)F)cc3)ccc2n1` [Compound 8] came in with a half-maximal inhibitory concentration (IC50) of less than 1000 nM. The compound `COC(=O)[C@H](Cc1ccc(O)cc1)NC(=O)c1cc(C(=O)O)c2cc(/C=C/C(C)(C)C)ccc2n1` [Compound 11] came in with an IC50 of less than 1000 nM.

In turn, `CNC(=O)[C@H](Cc1ccc(O)cc1)NC(=O)c1cc(C(=O)O)c2cc(/C=C/c3ccc(Cl)cc3)ccc2n1` [Compound 14] yielded a half-maximal inhibitory concentration (IC50) of less than 1000 nM. Then `COC[C@H](Cc1ccc(O)cc1)NC(=O)c1cc(C(=O)O)c2cc(-c3cccc(Cn4ccccc4=O)c3)ccc2n1` [Compound 26], with less than 1000 nM; and `COC[C@H](Cc1ccc(O)cc1)NC(=O)c1cc(NS(=O)(=O)C(C)(C)C)c2cc(-c3cccc(COc4ccccn4)c3)ccc2n1` [Compound 27], with less than 1000 nM. With `COC(=O)[C@H](Cc1ccc(O)cc1)NC(=O)c1cc(C(=O)O)c2cc(-c3cccc(C(C)C)c3)ccc2n1` [Compound 30] the figure was less than 1000 nM. Compound `COC(=O)[C@H](Cc1ccc(O)cc1)NC(=O)c1cc(C(=O)O)c2cc(CCc3ccc(F)cc3)ccc2n1` [Compound 31] gave an IC50 of less than 1000 nM.

Regarding `COC(=O)[C@H](Cc1ccc(O)cc1)NC(=O)c1cc(C(=O)O)c2cc(-c3cccc([N+](=O)[O-])c3)ccc2n1` [Compound 33], the half-maximal inhibitory concentration (IC50) was less than 1000 nM. For `CN(C)C(=O)[C@H](Cc1ccc(O)cc1)NC(=O)c1cc(C(=O)O)c2cc(/C=C/c3ccc(Cl)cc3)ccc2n1` [Compound 34], the IC50 was less than 1000 nM. With `COC(=O)[C@H](Cc1ccc(O)cc1)NC(=O)c1cc(C(=O)O)c2cc(-c3cccc(C#N)c3)ccc2n1` [Compound 36] the figure was less than 1000 nM; with `COC(=O)[C@H](Cc1ccc(O)cc1)NC(=O)c1cc(C(=O)O)c2cc(-c3cc4ccccc4o3)ccc2n1` [Compound 38], less than 1000 nM; with `COC(=O)[C@H](Cc1ccc(O)cc1)NC(=O)c1cc(C(=O)O)c2cc(-c3ccc(F)c(C)c3)ccc2n1` [Compound 41], less than 1000 nM. `COC(=O)[C@H](Cc1ccc(O)cc1)NC(=O)c1cc(C(=O)O)c2cc(-c3cccc(-c4ccccc4)c3)ccc2n1` [Compound 42] yielded an IC50 of less than 1000 nM. Turning to `O=C(N[C@@H](Cc1ccc(O)cc1)C(=O)NC1CC1)c1cc(C(=O)O)c2cc(/C=C/c3ccc(Cl)cc3)ccc2n1` [Compound 44], the IC50 is less than 1000 nM.

Regarding `COC(=O)[C@H](Cc1ccc(O)cc1)NC(=O)c1cc(C(=O)O)c2cc(-c3cccc(C)c3)ccc2n1` [Compound 48], the IC50 is less than 1000 nM. Then `COC(=O)[C@H](Cc1ccc(O)cc1)NC(=O)c1cc(C(=O)O)c2cc(-c3ccc(C)c([N+](=O)[O-])c3)ccc2n1` [Compound 49], with less than 1000 nM.

Consider `COC(=O)[C@H](Cc1ccc(O)cc1)NC(=O)c1cc(C(=O)O)c2cc(-c3ccc(F)c(Cl)c3)ccc2n1` [Compound 50], for which the IC50 was less than 1000 nM. Then `COC(=O)[C@H](Cc1ccc(O)cc1)NC(=O)c1cc(C(=O)O)c2cc(-c3ccc(Oc4ccccc4)cc3)ccc2n1` [Compound 51], with less than 1000 nM; and `COC(=O)[C@H](Cc1ccc(O)cc1)NC(=O)c1cc(C(=O)O)c2cc(CCC(C)(C)C)ccc2n1` [Compound 52], with less than 1000 nM; and `CCCC(Cc1ccc(O)cc1)NC(=O)c1cc(C(=O)O)c2cc(-c3cccc(C(F)(F)F)c3)ccc2n1` (centres unmarked) [Compound 54], with less than 1000 nM.

`COC(=O)[C@H](Cc1ccc(O)cc1)NC(=O)c1cc(C(=O)O)c2cc(-c3cc4ccccc4s3)ccc2n1` [Compound 58] displayed a half-maximal inhibitory concentration (IC50) of less than 1000 nM. With `COC(=O)[C@H](Cc1ccc(O)cc1)NC(=O)c1cc(C(=O)O)c2cc(CCc3ccccc3)ccc2n1` [Compound 60] the figure was less than 1000 nM; with `O=C(NC(Cc1ccc(O)cc1)C1CCCCC1)c1cc(C(=O)O)c2cc(-c3cccc(C(F)(F)F)c3)ccc2n1` (centres unmarked) [Compound 63], less than 1000 nM; with `COC(=O)[C@H](Cc1ccc(O)cc1)NC(=O)c1cc(NS(C)(=O)=O)c2cc(-c3cccc(C(F)(F)F)c3)ccc2n1` [Compound 64], less than 1000 nM.

`COC(=O)[C@H](Cc1ccc(O)cc1)NC(=O)c1cc(C(=O)O)c2cc(-c3cc(C)cc(C)c3)ccc2n1` [Compound 67] yielded a concentration for half-maximal inhibition (IC50) of less than 1000 nM. Then `COC(=O)[C@H](Cc1ccc(O)cc1)NC(=O)c1cc(C(=O)O)c2cc(-c3ccc(Cl)c(Cl)c3)ccc2n1` [Compound 69], with less than 1000 nM; and `COC[C@H](Cc1ccc(O)cc1)NC(=O)c1cc(S(=O)(=O)O)c2cc(-c3cccc(C(F)(F)F)c3)ccc2n1` [Compound 71], with less than 1000 nM; and `COC(=O)[C@H](Cc1ccc(O)cc1)NC(=O)c1cc(C(=O)O)c2cc(-c3ccc(C(C)C)cc3)ccc2n1` [Compound 72], with less than 1000 nM. With `COC(=O)[C@H](Cc1ccc(O)cc1)NC(=O)c1cc(C(=O)O)c2cc(-c3ccc(OC)cc3)ccc2n1` [Compound 76] the figure was less than 1000 nM; with `COC(=O)[C@H](Cc1ccc(O)cc1)NC(=O)c1cc(C(=O)O)c2cc(-c3cccs3)ccc2n1` [Compound 81], less than 1000 nM. With `COC(=O)[C@H](Cc1ccc(O)cc1)NC(=O)c1cc(C(=O)O)c2cc(-c3ccc(C)s3)ccc2n1` [Compound 82] the figure was less than 1000 nM; with `COC(=O)[C@H](Cc1ccc(O)cc1)NC(=O)c1cc(C(=O)O)c2cc(-c3ccc(Cl)cc3)ccc2n1` [Compound 83], less than 1000 nM; with `O=C(N[C@@H](Cc1ccc(O)cc1)c1ncc[nH]1)c1cc(C(=O)O)c2cc(-c3cccc(C(F)(F)F)c3)ccc2n1` [Compound 86], less than 1000 nM. The compound `COC[C@H](Cc1ccc(O)cc1)NC(=O)c1cc(-c2nnn[nH]2)c2cc(-c3cccc(C(F)(F)F)c3)ccc2n1` [Compound 87] gave an IC50 of less than 1000 nM.

`COC(=O)[C@H](Cc1ccc(O)cc1)NC(=O)c1cc(C(=O)O)c2cc(-c3cccc(OC)c3)ccc2n1` [Compound 91] registered an IC50 of 1000 to 40000 nM.

Regarding `COC(=O)[C@H](Cc1ccc(O)cc1)NC(=O)c1cc(C(=O)O)c2cc(-c3ccc(Cl)c(F)c3)ccc2n1` [Compound 92], the IC50 was in the range of 1000 to 40000 nM.

As for `COC(=O)[C@H](Cc1ccc(O)cc1)NC(=O)c1cc(C(=O)O)c2cc(-c3cccc(F)c3)ccc2n1` [Compound 93], the 50% inhibitory concentration (IC50) was 1000 to 40000 nM. `COC[C@H](Cc1ccc(O)cc1)NC(=O)c1cc(C(=O)NS(C)(=O)=O)c2cc(-c3cccc(C(F)(F)F)c3)ccc2n1` [Compound 95] displayed an IC50 of 1000 to 40000 nM.

`NC[C@H](Cc1ccc(O)cc1)NC(=O)c1cc(C(=O)O)c2cc(CCc3ccc(Cl)cc3)ccc2n1` [Compound 97] registered an IC50 of 1000 to 40000 nM.

Regarding `COC[C@H](Cc1ccc(O)cc1)NC(=O)c1cc(NS(=O)(=O)C(C)(C)C)c2cc(-c3cccc(COc4cccc[n+]4[O-])c3)ccc2n1` [Compound 98], the IC50 lay in the range of 1000 to 40000 nM. The compound `O=C(N[C@@H](Cc1ccc(O)cc1)c1cnco1)c1cc(C(=O)O)c2cc(-c3cccc(C(F)(F)F)c3)ccc2n1` [Compound 99] came in with an IC50 of 1000 to 40000 nM. With `COC(=O)[C@H](Cc1ccc(O)cc1)NC(=O)c1cc(C(=O)O)c2cc(-c3ccc(C)cc3)ccc2n1` [Compound 103] the figure was 1000 to 40000 nM; with `COC(=O)[C@H](Cc1ccc(O)cc1)NC(=O)c1cc(C(=O)O)c2cc(-c3cccc(C(C)=O)c3)ccc2n1` [Compound 104], 1000 to 40000 nM.
